Molecules are shown by their SMILES.

On the set-up of assay [1]: species or system mice. Particulars: mouse, in vivo, sc, 30 min.
Details of assay [2]: species or system mice. The following applies: mouse, in vivo, sc.
On the set-up of assay [3]: species or system mice. Particulars: mouse, in vivo.

With `CN1CC[C@]23c4c5ccc(O)c4O[C@H]2[C@@H](O)C=C[C@H]3[C@H]1C5` [Morphine], the “ED50 (95% confidence limits) in the hot plate” value in assay [1] came to 5.81 mg/kg.
`CO[C@]12CC[C@@]3(C[C@@H]1[C@](C)(O)C(C)(C)C)[C@H]1Cc4ccc(O)c5c4[C@@]3(CCN1CC1CC1)[C@H]2O5` [Buprenorphine]: in assay [2], the “ED50 (95% confidence limits) in the acetic acid writhing test” value was 0.00693 mg/kg. Further, in assay [3], the “anti-Mor effect (in words)” value is reported as “antagonised Mor analgesia”. In addition, the “AD50 (95% confidence limits), dosage required to inhibit Mor analgesia by 50%” value in assay [3] (sc) was 1.33 mg/kg.
